According to patent publication US20180171411A1, “GFRalpha1 AS A BIOMARKER FOR CISPLATIN-INDUCED CHEMORESISTANCE AND METASTASIS” (THE BOARD OF REGENTS OF THE UNIVERSITY OF TEXAS SYSTEM, priority 2015, published 2018):

B1: GDNF: glial cell line-derived neurotrophic factor, the major ligand of GFRα1 (protein, UniProt P39905 78-211, looked up)
Glial cell line-derived …: SPDKQMAVLPRRERNRQAAAANPENSRGKGRRGQRGKNRGCVLTAIHLNVTDLGLGYETKEELIFRYCSGSCDAAETTYDKILKNLSRNRRLVSDKVGQACCRPIAFDDDLSFLDDNLVYHILRKHSAKRCGCI

Columns and labels:
[1] = test system: APE1 expression in osteosarcoma cells; assay: Immunoblot of APE1 expression after cisplatin; format: cell-based, human; details: different concentrations of cisplatin, 24 h
Method: FIG. 10. GFRα1-mediated chemoresistance of osteosarcoma cells is independent of APE and RET signaling. (a) Immunoblot analysis of MG-63 cell lysates with antibodies specific for APE, RET and β-actin. MG-63 and U-2 OS cells were treated with different concentrations of cisplatin for 24 h. The cell lysates of GDNF-treated MIA PaCa-2 were used as positive controls for APE and RET expression.
Immunoblotting. Cells were washed with PBS and lysed in RIPA Buffer (Pierce, Rockford, Ill.). The protein content was determined using a dye-binding microassay (Bio-Rad, Hercules, Calif.), and 10-50 μg protein per lane was electrophoresed on 4-12% SDS polyacrylamide gels. Proteins were blotted onto Hybond ECL membranes (Amersham Pharmacia Biotech, Piscataway, N.J.). Two protein ladders were used for molecular weight determination (GenDEPOT, Barker, Tex.). The blotted proteins were detected using an enhanced chemiluminescence detection system (iNtRON, Seoul, Korea). Data were quantified and analyzed with Image-J software.

MG-63 cells = assay: WST-1 cell viability of MG-63 cells; format: cell-based, human; details: GDNF 50 ng/ml, 24 h
Method: FIG. 4. GFRα1 regulates autophagy by Src/AMPK signaling in osteosarcoma cells. (a-b) Immunoblot analysis of osteosarcoma cell lysates with antibodies specific for GFRα1, p-Src, Src, p-AMPK, AMPK, p-mTOR, mTOR, p-p70 S6Kinase, Beclin 1, HMGB1, LC3, and β-actin. (a) MG-63 and cells were treated with cisplatin (20 μM) for 24 hr. (b) Control and GFRα1-deficient MG-63 cells were treated with cisplatin (20 μM) for 24 hr. (c-e) Immunoblot analysis of osteosarcoma cell lysates with antibodies specific for GFRα1, p-Src, Src, p-AMPK, AMPK, LC3, and β-actin. (c) Control and Src-deficient MG-63 cells were treated with cisplatin (20 μM) for 24 hr. […] Cell viability was measured using the WST-1 assay. […] Cell viability was measured using the WST-1 assay. […]
FIG. 7. […] (a) Quantitative real-time PCR of GDNF mRNA expression after cisplatin treatment. […] (b-d) Cell viability was measured using the WST-1 assay. […] (f) Quantitative analysis of the number of yellow puncta and the number of RFP-LC3 puncta in the combined images of Control and GFRα1-overexpressing MG-63 cells treated with GDNF. […]
Cell viability assays. […] Cell viability was determined by measuring the absorbance after adding WST-1. The spectrophotometric absorbance of the samples was measured using an Ultra Multifunctional Microplate Reader (Tecan, Durham, N.C.) at 450 nm. […]

| Molecule | level of APE1 expression [1] | cell proliferation of MG-63 cells (MG-63 cells) |
| --- | --- | --- |
| N.N.[Cl][Pt][Cl] [cisplatin, Cis-Diamineplatinum(II) dichloride] | not affected |  |
| B1 |  | no effect |
